Experimental data taken from a melting point compilation (Tetko et al.; mined from patent text by program, amines drawn as free bases though some values may be those of a salt).

Compound `COc1cc(NS(=O)(=O)c2cccs2)c2[nH]c(C(=O)NCCSC(c3ccccc3)(c3ccccc3)c3ccccc3)cc2c1` has a melting point of 128 to 129 °C.
For `CC1Oc2ccccc2C(O)C1n1ccnc1` (stereo not drawn), the melting point was 160 to 175 °C.
Work on `CCCCNc1c([N+](=O)[O-])cc(C(=O)O)cc1S(N)(=O)=O` yielded a melting point of 192 °C.
With `CC(=O)Nc1cc([N+](=O)[O-])ccc1OCCCCl` the melting point was 130 °C.
With `ON=CN1CCCC1C1=Nc2ccc(Cl)cc2C(c2ccccc2F)=NC1` (stereo not drawn) the melting point was 175 to 178 °C.
With `COc1ccc2c(c1)S(=O)c1nccnc1N2C` (stereo not drawn) the melting point was 229 to 231 °C.
Work on `CCCC(=O)N1CCc2nc3ccccc3c(C)c2CC1` yielded a melting point of 130 °C.
`Oc1cccc2c1CCC(O)C2` (stereo not drawn) showed a melting point of 126 to 128 °C.
With `O=C(O)/C=C/c1ccc(-c2nc3c(=O)n(CC4CCC4)c(=O)n(CC4CCC4)c3[nH]2)cc1` the melting point was > 300 °C.
In the case of `C#Cc1cc(C)nc(C(=O)Nc2ccn(C)n2)c1`, the melting point is reported as 226 °C.
For `COc1ccc(C(=O)Nc2ccccc2)cc1NC(=S)Nc1ccccc1C`, the melting point was 172 to 174 °C.
Work on `CCOC(=O)C=C1C(OC)CC1c1cccc(C2(c3ccc(OC(F)F)cc3)N=C(N)N(C)C2=O)c1` (stereo not drawn) yielded a melting point of 78 to 80 °C.
In the case of `OCCSc1nc2ccc(Cc3ccccc3)cc2[nH]1`, the melting point is reported as 108 to 109 °C.
In the case of `Cc1nn(-c2cccc(N)c2)c2c1C(=O)CC(C)(C)C2`, the melting point is reported as 131 to 132 °C.
`C[C@@H]1CCCN1CCc1ccc2cc(-c3ccc(C#N)cc3)ccc2n1` showed a melting point of 164 °C.
Compound `CCCCc1ncc(/C=C(\Cc2cccs2)C(=O)O)n1Cc1ccc(C(=O)O)c(C(=O)O)c1` has a melting point of 204 to 205 °C.
With `COc1cc2c(cc1OC)C(c1ccccc1)=NC(c1cccnc1)C2` (stereo not drawn) the melting point was 180 to 182 °C.
In the case of `CCOC(=O)c1nc(Nc2ccccc2)sc1-c1ccncc1`, the melting point is reported as 167 to 169 °C.
Compound `C#CCN(C(C)=O)c1cccc(-c2ccnc3c(C#N)cnn23)c1` has a melting point of 193 to 195 °C.
`C[C@H](NC(=O)[C@@H]1CCCN1CCC(=O)O)C(=O)N1CCC[C@H]1C(=O)O` showed a melting point of 133 to 136 °C.
With `CNC(=O)Nc1cc(C2(C)CC2)on1` the melting point was 144 to 147 °C.
Work on `CCOC(=O)CNC(=O)Oc1c(CC)n(C)ccc1=O` yielded a melting point of 99 to 100 °C.
Work on `O=C1CCC2CC(c3ccccc3)c3cccc1c32` (stereo not drawn) yielded a melting point of 99 °C.
With `CC(=O)C1C(C(=O)c2ccc(Br)cc2)CC2C3CCC4=CC(=O)C=CC4(C)C3(F)C(O)CC21C` (stereo not drawn) the melting point was 285 to 286 °C.
With `O=C1CCN(Cc2cnc(Nc3n[nH]c4ccc(-c5ncccc5Cl)cc34)s2)CC1` the melting point was 187 to 188 °C.
`N[C@@H]1C(=O)N(S(=O)(=O)O)[C@H]1C1CCCCC1` (relative stereo) gave a melting point of 135 to 138 °C.
`CCOC(=O)Cc1nnc(-c2ccccn2)[nH]c1=O` showed a melting point of 136 to 137 °C.
In the case of `CCOC(=O)c1nnnn1Cc1ccc(OC)cc1`, the melting point is reported as 52 °C.
With `CCCCCCCCCCCCCCCCCC(=O)Nc1cccc(C(=O)N(CC(=O)O)CC(=O)O)c1` the melting point was 132 to 142 °C.
Work on `Cn1cnc(COc2nn3c(-c4ccc(F)cc4)nnc3cc2-c2ccccc2)n1` yielded a melting point of 233 to 235 °C.
`C=Cc1c(C(=O)O)cccc1[N+](=O)[O-]` showed a melting point of 166 to 167 °C.
For `Cc1cc(CCCCCOc2ccc(C(N)=S)cc2)on1`, the melting point was 156 to 158 °C.
`Cc1cc(N2N=CCNC2=O)cc(Cl)c1Sc1nccn1C` gave a melting point of 173 to 174 °C.
Compound `CCOC(=O)c1c(-c2cccc([N+](=O)[O-])c2)cc(-c2ccccc2)nc1CBr` has a melting point of 125 to 128 °C.
With `CCOC(=O)c1c[nH]c2c(-c3ccncc3)c(-c3ccc(F)cc3)nn2c1=O` the melting point was > 250 °C.
In the case of `Cc1noc(C)c1Cn1cc(NC(=O)c2scc(S(C)(=O)=O)c2Cl)cn1`, the melting point is reported as 202 to 204 °C.
For `O=C(Cc1ccccc1)NC(SC(=O)c1ccccc1)C(=O)O` (stereo not drawn), the melting point was 133 to 138 °C.
Work on `CCCn1c(N)cc(=O)n1-c1ccccc1` yielded a melting point of 183 to 185 °C.
With `Cc1ccc2c(c1)C(C(=O)Nc1c(C(C)C)cccc1C(C)C)c1ccccc1CO2` (stereo not drawn) the melting point was 166 to 167 °C.
`O=C1NC2(CCCC2)CCCC1(Cl)Cl` gave a melting point of 114 to 120 °C.
In the case of `CC1CN(c2c(F)cc3c(=O)c(C(=O)O)cn(C4CC4)c3c2OC(F)F)CCN1` (stereo not drawn), the melting point is reported as 223 to 225 °C.
For `O=C(O)c1cn(C2CC2)c2cc(N3CCC(c4ccncc4)C3)c(F)cc2c1=O` (stereo not drawn), the melting point was 260 to 261 °C.
Work on `CCOC(=O)C1CCc2c(c3ccccc3n2C(=O)c2ccc(C)cc2)C1` (stereo not drawn) yielded a melting point of 70 to 72 °C.
`CCC(=O)c1nc(C)c(C)nc1C` showed a melting point of 65 to 67 °C.
For `CC(C)(C)[Si](ON1C(=O)c2ccccc2C1=O)(c1ccccc1)c1ccccc1`, the melting point was 138 to 143 °C.
With `O=c1c2ccccc2sn1-c1ccccc1` the melting point was 140 to 141 °C.
Work on `COC1(c2ccccc2)CCc2c(C(=O)O)cc3c(nc(C)n3C)c2O1` (stereo not drawn) yielded a melting point of 288 to 289 °C.
Compound `CCCCCCCCCN1C(=O)N(c2ccc([N+](=O)[O-])c(C(F)(F)F)c2)C(=O)C1(C)C` has a melting point of 63 °C.
Compound `CCCCc1ccc(C(=O)NCCC(C)(C)C)cc1` has a melting point of 70 to 71 °C.
With `CCNc1ccc2c(c1)N1CCN=C1S2` the melting point was 239 to 246 °C.
`CCCNC(=O)N1CCC(O)(Cc2c3c(nn2CC)c(N)nc2ccccc23)CC1` showed a melting point of 208 to 210 °C.
Compound `COC(=O)C1=Cc2cc(-c3ccc(OCCOC(C)C)cc3)ccc2N(S(C)(=O)=O)CC1` has a melting point of 119 to 121 °C.
`O[C@@H](COc1cccc(-c2noc3ccsc23)c1)CN1CCN(c2n[nH]c3cc(F)ccc23)CC1` gave a melting point of 97 to 99 °C.
`CC(C)C(O)CCC(C)C1CCC2C3CC(O)C4CC(O)CCC4(C)C3CCC12C` (stereo not drawn) gave a melting point of 169 to 173 °C.
Work on `c1ccc2c(Sc3cccc4ccccc34)cccc2c1` yielded a melting point of 108 to 110 °C.
`COC(=O)c1c(NC(C)=O)sc2c1CCC(c1ccccc1)C2` (stereo not drawn) gave a melting point of 116 to 117 °C.
Compound `CCc1ccccc1NC=C1C(=O)N(c2cccc(NC(=O)OC)c2)N=C1C` has a melting point of 229 °C.
With `c1ccc(Cc2cnc(N3CCN(c4ncnc5ccccc45)CC3)nc2)cc1` the melting point was > 250 °C.
In the case of `OCc1ccc(CO)c(Br)c1`, the melting point is reported as 104 °C.
For `O=[N+]([O-])c1cnc(-c2nc3ccccc3[nH]2)n1CCO`, the melting point was 217 to 219 °C.
`Cc1cc(C(=O)O)cc(C)c1N=C1NCCN1` showed a melting point of 116 to 117 °C.
For `C[C@@H](NC(=O)c1csc(-c2ccc(Cl)cc2)n1)[C@](O)(Cn1cncn1)c1ccc(F)cc1F`, the melting point was 201 to 204 °C.
In the case of `FC(F)(F)C(Cc1ccccc1)(C(F)(F)F)C(F)(F)F`, the melting point is reported as 32 to 33 °C.
`COc1cc2c(Nc3ccc(Sc4nccn4C)c(Cl)c3)c(C#N)cnc2cc1/C=C/CCO` showed a melting point of 273 to 278 °C.
`COC(C)(C)C(=O)C(Oc1ccc(Cl)cc1Cl)n1cncn1` (stereo not drawn) gave a melting point of 53 to 54 °C.
In the case of `Cc1c(C)c(Cl)c(C(=O)c2ccccc2)c(C)c1Cl`, the melting point is reported as 105 to 107 °C.
With `CC1(C)Oc2ccsc2C(N)C1O` (stereo not drawn) the melting point was 111 to 116 °C.
For `C=C(C)CC(O)(C(Nc1cccc2nc(C)ncc12)c1ccc(Cl)cc1OC)C(F)(F)F` (stereo not drawn), the melting point was 193 °C.
`O=C(O)CCCCCCCCCCCCCCCCCCC(=O)n1nnc2ccccc21` showed a melting point of 112 °C.
`COc1ccc(C(O)CN(Cc2ccccc2)Cc2ccccc2)cc1C(N)=O` (stereo not drawn) gave a melting point of 120 to 123 °C.
`COc1ccc(/C=C2/c3cc(OC)c(OC)cc3CCN2C(=O)c2cc(OC)c(OC)c(OC)c2)cc1OC` showed a melting point of 195 to 200 °C.
Work on `O=C(NC1=NN(c2ccccc2)C(c2ccccc2)C1)C(F)(F)F` (stereo not drawn) yielded a melting point of 152 to 154 °C.
Work on `CCOC(=O)c1ncn2c1CN=C(c1ccccc1F)c1cc(C#C[Si](C)(C)C)ccc1-2` yielded a melting point of 196 to 198 °C.
